Among the data in patent publication US3985887A, “3-Substituted-4-hydroxyphenyl-2-piperidylcarbinols as β-adrenergic stimulants” (SmithKline Corporation, priority 1975, dated 1976) are EC25 and EC50 values, retold here.

For assay [1], the system named is spontaneously beating right atria of the guinea pig. Briefly: effect on spontaneously beating right atria of the guinea pig (β-stimulant effect on cardiac muscle). The assay is classed as cell-based. The following applies: Cavia porcellus, in vitro, read-out: ED25, dose which produces 25% of the maximum possible increase in atrial contraction rate. On the procedure:
(§1) The compounds of this invention are β-adrenergic stimulants which have direct bronchodilator activity with minimal cardiac stimulation. This selective β-stimulant activity is determined by two standard in vitro pharmacological test systems: (1) effect on spontaneous tone of guinea pig tracheal chain preparation as a measure of β-stimulant (direct relaxant) effect on airway smooth muscle, and (2) effect on spontaneously beating right atria of the guinea pig as a measure of β-stimulant effect on cardiac muscle. Compounds that show selective bronchodilating properties, as the compounds of this invention do, are active in test (1) at a dose lower than is required in test (2) thereby resulting in a positive separation ratio. Results of test (1) are reported as the dose which produces 50% of the maximum possible relaxation (ED50). Test (2) results are reported as the dose which produces 25% of the maximum possible increase in atrial contraction rate (ED25).

For assay [2], the system named is guinea pig tracheal chain preparation. Briefly: effect on spontaneous tone of guinea pig tracheal chain preparation (β-stimulant direct relaxant effect on airway smooth muscle). In kind it is cell-based. As to conditions: Cavia porcellus, in vitro, read-out: ED50, dose which produces 50% of the maximum possible relaxation. The method, then:
as §1

Structures can show the parent of a compound that is named as a salt.

Take `CS(=O)(=O)Cc1cc(C(O)C2CCCCN2)ccc1O` (stereo not drawn) [α-(4-hydroxy-3-methanesulfonylmethylphenyl)-2-piperidylcarbinol hydrobromide]: the EC25 in assay [1] is 1.1 µg/mL. The EC50 in assay [2] was determined as 0.14 µg/mL.
Consider `NC(=O)Nc1cc(C(O)C2CCCCN2)ccc1O` (stereo not drawn) [α-(4-hydroxy-3-ureidophenyl)-2-piperidylcarbinol hydrochloride], for which the EC25 in assay [1] was 9.4 µg/mL. Also, in assay [2], the EC50 was 0.83 µg/mL.
`Nc1cc(C(O)C2CCCCN2)ccc1O` (stereo not drawn) [α-(3-amino-4-hydroxyphenyl)-2-piperidylcarbinol hydrobromide]: in assay [1], the EC25 came out at 4.4 µg/mL. In assay [2], the EC50 worked out at 0.12 µg/mL.
